Assay results from US11382956B2, “Amylin analogues” (Zealand Pharma A/S, priority 2016, dated 2022).
Numbered stars: 1 amine (or outer) side, 2 acyl side, 3 side chain; on linkers, the order of the positions; unused ones are H or OH. Bridge positions count the residues as written; N and C are the ends. Square brackets hold non-standard residues; d marks the D form. Peptide text beside a SMILES is read from it. * marks the point of attachment. C20 diacid = O=C(O)CCCCCCCCCCCCCCCCCCC(=O)*; γGlu = O=C(O)[C@H](CCC(=O)[*:2])N[*:1]; Hyp = O=C(O)[C@@H]1C[C@@H](O)CN1; NMeI = CC[C@H](C)[C@H](NC)C(=O)O; Aad = N[C@@H](CCCC(=O)O)C(=O)O; Orn = NCCC[C@H](N)C(=O)O; Sar = CNCC(=O)O

What was measured:
[1] = target: T1, recombinant human calcitonin receptor (hCT-R) (Homo sapiens, UniProt P30988); assay: hCT-R cAMP assay (AlphaScreen) in 1321N1 cells; format: cell-based; conditions: cAMP formation, 45 min stimulation
T1 construct: host or cells: human astrocytoma cell line 1321N1
T1 sequence (P30988 25-474): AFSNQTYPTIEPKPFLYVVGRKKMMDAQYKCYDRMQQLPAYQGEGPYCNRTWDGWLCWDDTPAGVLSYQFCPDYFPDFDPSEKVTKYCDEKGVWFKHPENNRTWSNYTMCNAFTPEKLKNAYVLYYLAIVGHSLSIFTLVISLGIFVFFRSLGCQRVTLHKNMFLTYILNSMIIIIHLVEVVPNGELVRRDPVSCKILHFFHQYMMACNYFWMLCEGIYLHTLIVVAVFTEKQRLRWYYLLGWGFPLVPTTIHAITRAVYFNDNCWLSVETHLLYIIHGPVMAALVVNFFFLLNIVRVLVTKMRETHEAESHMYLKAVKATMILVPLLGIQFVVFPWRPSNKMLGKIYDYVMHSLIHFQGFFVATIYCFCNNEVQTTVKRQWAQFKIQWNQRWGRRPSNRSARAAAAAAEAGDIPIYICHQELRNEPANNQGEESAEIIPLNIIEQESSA
Method in brief: (§1)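 1321N1 astrocytoma cells expressing recombinant human calcitonin receptor alone or with RAMP3 (AMY3) stimulated 45 min at room temperature with peptide in IBMX-containing buffer. cAMP quantified by AlphaScreen after 1 h bead incubation; EC50 fitted from at least 7 concentrations.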

[2] = target: T2, recombinant human amylin 3 receptor (hAMYR3) (Homo sapiens, UniProt O60896+P30988); assay: hAMYR3 cAMP assay (AlphaScreen) in 1321N1 cells; format: cell-based; conditions: cAMP formation, 45 min stimulation
T2 construct: host or cells: human astrocytoma cell line 1321N1
T2 sequence (P30988 25-474): T1 sequence (P30988 25-474)
T2 sequence (O60896 24-148 partner): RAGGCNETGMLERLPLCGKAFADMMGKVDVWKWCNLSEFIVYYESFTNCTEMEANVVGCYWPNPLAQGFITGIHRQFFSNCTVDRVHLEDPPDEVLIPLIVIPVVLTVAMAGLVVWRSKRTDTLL
Method in brief: as §1

SMILES	EC50 [1] [nM]	EC50 [2] [nM]
CC[C@H](C)[C@@H](C(=O)N[C@@H](CC(C)C)C(=O)N[C@@H](CO)C(=O)N[C@@H](CO)C(=O)N[C@H](C(=O)N[C@@H](CCC(=O)O)C(=O)N[C@H](C(=O)NCC(=O)N[C@@H](CO)C(=O)N[C@@H](CO)C(=O)N[C@H](C(=O)N1C[C@H](O)C[C@H]1C(N)=O)[C@@H](C)O)C(C)C)[C@@H](C)O)N(C)C(=O)[C@H](C)NC(=O)CN(C)C(=O)[C@H](Cc1ccccc1)NC(=O)[C@H](CO)NC(=O)[C@H](CO)NC(=O)[C@H](CCCNC(=N)N)NC(=O)[C@@H](NC(=O)[C@H](CC(C)C)NC(=O)[C@H](Cc1ccccc1)NC(=O)[C@H](CCCC(=O)O)NC(=O)[C@H](C)NC(=O)[C@H](CC(C)C)NC(=O)[C@H](CCCNC(=N)N)NC(=O)[C@H](CCC(=O)O)NC(=O)[C@@H](NC(=O)[C@H](C)NC(=O)[C@@H]1CCCNC(=O)C[C@H](NC(=O)[C@H](CCCNC(=N)N)NC(=O)CC[C@H](NC(=O)CCCCCCCCCCCCCCCCCCC(=O)O)C(=O)O)C(=O)NCC(=O)N[C@@H]([C@@H](C)O)C(=O)N[C@@H](C)C(=O)N[C@@H]([C@@H](C)O)C(=O)N1)[C@@H](C)O)[C@@H](C)O [Compound 22, [19CD]-isoGlu-RD()GTAT-Orn()-ATERLA-Aad-FLTRSSF-Gly(Me)-A-Ile(Me)-LSSTEVGSST-Hyp-NH2] ({C20 diacid-γGlu}-RDGTAT[Orn]ATERLA[Aad]FLTRSSF[Sar]A[NMeI]LSSTEVGSST[Hyp]-NH2; lactam 2-7)	0.474	0.051
CC[C@H](C)[C@@H](C(=O)N[C@@H](CC(C)C)C(=O)N[C@@H](CO)C(=O)N[C@@H](CO)C(=O)N[C@H](C(=O)N[C@@H](CCC(=O)O)C(=O)N[C@H](C(=O)NCC(=O)N[C@@H](CO)C(=O)N[C@@H](CC(N)=O)C(=O)N[C@H](C(=O)N1C[C@H](O)C[C@H]1C(N)=O)[C@@H](C)O)C(C)C)[C@@H](C)O)N(C)C(=O)[C@H](C)NC(=O)CN(C)C(=O)[C@H](Cc1ccccc1)NC(=O)[C@H](C)NC(=O)[C@H](C)NC(=O)[C@H](CCCNC(=N)N)NC(=O)[C@H](CCC(N)=O)NC(=O)[C@H](CC(C)C)NC(=O)[C@H](Cc1ccccc1)NC(=O)[C@H](CCCC(=O)O)NC(=O)[C@H](C)NC(=O)[C@H](CC(C)C)NC(=O)[C@H](CCCNC(=N)N)NC(=O)[C@H](CCC(=O)O)NC(=O)[C@@H](NC(=O)[C@H](C)NC(=O)[C@@H]1CCCNC(=O)C[C@H](NC(=O)[C@H](CCCNC(=N)N)NC(=O)CC[C@H](NC(=O)CCCCCCCCCCCCCCCCCCC(=O)O)C(=O)O)C(=O)NCC(=O)N[C@@H]([C@@H](C)O)C(=O)N[C@@H](C)C(=O)N[C@@H]([C@@H](C)O)C(=O)N1)[C@@H](C)O [Compound 26, [19CD]-isoGlu-RD()GTAT-Orn()-ATERLA-Aad-FLQRAAF-Gly(Me)-A-Ile(Me)-LSSTEVGSNT-Hyp-NH2] ({C20 diacid-γGlu}-RDGTAT[Orn]ATERLA[Aad]FLQRAAF[Sar]A[NMeI]LSSTEVGSNT[Hyp]-NH2; lactam 2-7)	0.769	0.12
CC[C@H](C)[C@@H](C(=O)N[C@@H](CC(C)C)C(=O)N[C@@H](CO)C(=O)N[C@@H](CO)C(=O)N[C@H](C(=O)N[C@@H](CCC(=O)O)C(=O)N[C@H](C(=O)NCC(=O)N[C@@H](CO)C(=O)N[C@@H](CC(N)=O)C(=O)N[C@H](C(=O)N1C[C@H](O)C[C@H]1C(N)=O)[C@@H](C)O)C(C)C)[C@@H](C)O)N(C)C(=O)[C@H](C)NC(=O)CN(C)C(=O)[C@H](Cc1ccccc1)NC(=O)[C@H](CO)NC(=O)[C@H](CO)NC(=O)[C@H](CCCNC(=N)N)NC(=O)[C@H](CCC(N)=O)NC(=O)[C@H](CC(C)C)NC(=O)[C@H](Cc1ccccc1)NC(=O)[C@H](Cc1c[nH]cn1)NC(=O)[C@H](C)NC(=O)[C@H](CC(C)C)NC(=O)[C@H](CCCNC(=N)N)NC(=O)[C@H](CCC(=O)O)NC(=O)[C@@H](NC(=O)[C@H](C)NC(=O)[C@@H]1CCCCNC(=O)C[C@H](NC(=O)[C@H](CCCNC(=N)N)NC(=O)CC[C@H](NC(=O)CCCCCCCCCCCCCCCCCCC(=O)O)C(=O)O)C(=O)NCC(=O)N[C@@H](CCC(=O)O)C(=O)N[C@@H](C)C(=O)N[C@@H]([C@@H](C)O)C(=O)N1)[C@@H](C)O [Compound 12, [19CD]-isoGlu-RD()GEATK()ATERLAHFLQRSSF-Gly(Me)-A-Ile(Me)-LSSTEVGSNT-Hyp-NH2] ({C20 diacid-γGlu}-RDGEATKATERLAHFLQRSSF[Sar]A[NMeI]LSSTEVGSNT[Hyp]-NH2; lactam 2-7)	0.893	0.999
CC[C@H](C)[C@@H](C(=O)N1CCC[C@H]1C(=O)N[C@@H](CO)C(=O)N[C@@H](CO)C(=O)N[C@H](C(=O)N[C@@H](CCC(=O)O)C(=O)N[C@H](C(=O)NCC(=O)N[C@@H](CO)C(=O)N[C@@H](CC(N)=O)C(=O)N[C@H](C(=O)N1C[C@H](O)C[C@H]1C(N)=O)[C@@H](C)O)C(C)C)[C@@H](C)O)N(C)C(=O)[C@H](C)NC(=O)CN(C)C(=O)[C@H](Cc1ccccc1)NC(=O)[C@H](CO)NC(=O)[C@H](CO)NC(=O)[C@H](CCCNC(=N)N)NC(=O)[C@H](CCC(N)=O)NC(=O)[C@H](CC(C)C)NC(=O)[C@H](Cc1ccccc1)NC(=O)[C@H](Cc1c[nH]cn1)NC(=O)[C@H](C)NC(=O)[C@H](CC(C)C)NC(=O)[C@H](CCCNC(=N)N)NC(=O)[C@H](CCC(N)=O)NC(=O)[C@@H](NC(=O)[C@H](C)NC(=O)[C@@H]1CCCNC(=O)C[C@H](NC(=O)[C@H](CCCNC(=N)N)NC(=O)CC[C@H](NC(=O)CCCCCCCCCCCCCCCCCCC(=O)O)C(=O)O)C(=O)NCC(=O)N[C@@H]([C@@H](C)O)C(=O)N[C@@H](C)C(=O)N[C@@H]([C@@H](C)O)C(=O)N1)[C@@H](C)O [Compound 9, [19CD]-isoGlu-RD()GTAT-Orn()-ATQRLAHFLQRSSF-Gly(Me)-A-Ile(Me)-PSSTEVGSNT-Hyp-NH2] ({C20 diacid-γGlu}-RDGTAT[Orn]ATQRLAHFLQRSSF[Sar]A[NMeI]PSSTEVGSNT[Hyp]-NH2; lactam 2-7)	0.027	0.013
CC[C@H](C)[C@@H](C(=O)N[C@@H](CC(C)C)C(=O)N[C@@H](CO)C(=O)N[C@@H](CO)C(=O)N[C@H](C(=O)N[C@@H](CCC(=O)O)C(=O)N[C@H](C(=O)NCC(=O)N[C@@H](CO)C(=O)N[C@@H](CC(N)=O)C(=O)N[C@H](C(=O)N1C[C@H](O)C[C@H]1C(N)=O)[C@@H](C)O)C(C)C)[C@@H](C)O)N(C)C(=O)[C@H](C)NC(=O)CN(C)C(=O)[C@H](Cc1ccccc1)NC(=O)[C@H](CO)NC(=O)[C@H](CO)NC(=O)[C@H](CCCNC(=N)N)NC(=O)[C@H](CCC(N)=O)NC(=O)[C@H](CC(C)C)NC(=O)[C@H](Cc1ccccc1)NC(=O)[C@H](CCCC(=O)O)NC(=O)[C@H](C)NC(=O)[C@H](CC(C)C)NC(=O)[C@H](CCCNC(=N)N)NC(=O)[C@H](CCC(=O)O)NC(=O)[C@@H](NC(=O)[C@H](C)NC(=O)[C@H](CCCN)NC(=O)[C@@H](NC(=O)[C@H](C)NC(=O)[C@@H](NC(=O)CNC(=O)[C@H](CC(=O)O)NC(=O)[C@H](CCCNC(=N)N)NC(=O)CC[C@H](NC(=O)CCCCCCCCCCCCCCCCCCC(=O)O)C(=O)O)[C@@H](C)O)[C@@H](C)O)[C@@H](C)O [Ref. 3, [19CD]-isoGlu-RDGTAT-Orn-ATERLA-Aad-FLQRSSF-Sar-A-Ile(Me)-LSSTEVGSNT-Hyp-NH2, reference compound] ({C20 diacid-γGlu}-RDGTAT[Orn]ATERLA[Aad]FLQRSSF[Sar]A[NMeI]LSSTEVGSNT[Hyp]-NH2)	18.2	13.2
